From patent EP4624457A1, “I[…] DERIVATIVES, I[…] NEURODEGENERATIVE DISEASES” (Centre National de la Recherche Scientifique, priority 2024, dated 2025)

Target: muscle (α1)2βγδ nAChR subtype (Torpedo marmorata, UniProt P02711+Q6S3H8+Q6S3H9)
Assay: Two-electrode voltage clamp electrophysiology, antagonistic activity on Xenopus laevis oocytes having incorporated Torpedo muscle-type nAChR
Format: cell-based
Settings: TEVC, value (95% CI), toxin purified by the applicant, Figure 5, read-out: nAChR subtype (nM; 95% CI) α12β1γδ (Torpedo)
Source text: The emerging cyclic imines toxins (CiTXs) of global distribution across coastal environments that are produced by dinoflagellates move fast up the human food chain through shellfish. The CiTX family includes 44 compounds: 7 gymnodimines (A-E, 12-methylgymnodimine and 16-desmethyl gymnodimine D), 16 spirolides (A-D, G-I, 13-desmethyl spirolide-C, 27-Hydroxy-13-desmethyl spirolide-C, 13,19-didesmethyl spirolide-C, 20-hydroxy-13,19-didesmethyl spirolide- C, 27-hydroxy-13,19-spirolide-C, 27-Oxo-13,19-didesmethyl spirolide-C, 13-desmethyl spirolide-D, 20-hydroxy-13,19-didesmethyl spirolide-D and 20-methyl spirolide-G), 8 pinnatoxins (A-H), 3 pteriatoxins (A-C), 6 prorocentrolides (A-B, 4- hydroxyprorocentrolide, 9,51-dihydro prorocentrolide, 30-sulfate prorocentrolide and 14-O-acetyl-4-hydroxyprorocentrolide), 1 spiroprorocentrimine, 2 portimines (A and B), and 1 kabirimine, (Aráoz et al. (2020) Cyclic imine toxins survey in coastal european shellfish samples: Bioaccumulation and mode of action of 28-O-palmitoyl ester of pinnatoxin-G. First report of portimine-A bioaccumulation. Harmful Algae, 98 [1]). The spiroimine moiety is the major feature characterizing cyclic imine toxins. […]

Chain of muscle (α1)2βγδ nAChR subtype (P02711 25-461): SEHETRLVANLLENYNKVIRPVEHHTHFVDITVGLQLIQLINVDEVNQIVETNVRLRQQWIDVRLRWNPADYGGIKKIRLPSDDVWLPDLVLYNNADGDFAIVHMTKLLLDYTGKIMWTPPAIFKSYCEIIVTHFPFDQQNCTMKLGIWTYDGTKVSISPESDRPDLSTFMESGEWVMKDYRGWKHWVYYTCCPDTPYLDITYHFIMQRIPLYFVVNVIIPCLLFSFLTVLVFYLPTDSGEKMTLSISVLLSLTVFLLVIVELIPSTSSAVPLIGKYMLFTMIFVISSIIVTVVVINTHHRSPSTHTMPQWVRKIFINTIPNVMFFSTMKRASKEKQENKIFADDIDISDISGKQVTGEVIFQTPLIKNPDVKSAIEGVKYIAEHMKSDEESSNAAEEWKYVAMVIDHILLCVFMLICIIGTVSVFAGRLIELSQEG
Chain of muscle (α1)2βγδ nAChR subtype (Q6S3H9 entry or part of it): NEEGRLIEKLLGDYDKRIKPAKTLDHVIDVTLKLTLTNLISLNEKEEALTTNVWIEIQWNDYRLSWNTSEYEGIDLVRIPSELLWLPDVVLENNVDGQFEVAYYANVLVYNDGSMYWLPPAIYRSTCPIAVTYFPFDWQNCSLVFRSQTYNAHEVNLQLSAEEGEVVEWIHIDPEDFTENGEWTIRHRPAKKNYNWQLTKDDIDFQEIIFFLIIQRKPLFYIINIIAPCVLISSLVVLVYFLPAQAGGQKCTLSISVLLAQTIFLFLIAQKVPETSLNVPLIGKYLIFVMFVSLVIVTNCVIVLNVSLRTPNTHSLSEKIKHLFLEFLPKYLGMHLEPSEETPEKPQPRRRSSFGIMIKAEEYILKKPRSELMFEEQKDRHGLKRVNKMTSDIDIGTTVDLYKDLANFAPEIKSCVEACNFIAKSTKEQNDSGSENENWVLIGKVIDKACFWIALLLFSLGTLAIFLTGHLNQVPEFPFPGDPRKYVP
Chain of muscle (α1)2βγδ nAChR subtype (Q6S3H8 entry or part of it): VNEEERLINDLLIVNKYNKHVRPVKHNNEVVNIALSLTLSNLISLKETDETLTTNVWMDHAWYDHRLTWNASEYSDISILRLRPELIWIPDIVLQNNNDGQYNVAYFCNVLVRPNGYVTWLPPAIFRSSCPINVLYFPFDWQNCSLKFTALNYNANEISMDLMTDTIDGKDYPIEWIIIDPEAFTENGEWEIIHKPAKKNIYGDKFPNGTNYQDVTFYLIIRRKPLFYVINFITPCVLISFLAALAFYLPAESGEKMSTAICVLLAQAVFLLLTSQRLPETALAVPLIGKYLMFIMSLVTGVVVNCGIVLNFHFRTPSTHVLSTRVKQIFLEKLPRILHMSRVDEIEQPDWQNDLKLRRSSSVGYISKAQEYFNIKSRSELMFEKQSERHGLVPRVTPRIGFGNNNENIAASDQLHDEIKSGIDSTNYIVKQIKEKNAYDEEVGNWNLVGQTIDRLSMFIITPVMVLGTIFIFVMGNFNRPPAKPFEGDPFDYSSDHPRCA
Chain of muscle (α1)2βγδ nAChR subtype (Q6S3I0 entry or part of it, further chain): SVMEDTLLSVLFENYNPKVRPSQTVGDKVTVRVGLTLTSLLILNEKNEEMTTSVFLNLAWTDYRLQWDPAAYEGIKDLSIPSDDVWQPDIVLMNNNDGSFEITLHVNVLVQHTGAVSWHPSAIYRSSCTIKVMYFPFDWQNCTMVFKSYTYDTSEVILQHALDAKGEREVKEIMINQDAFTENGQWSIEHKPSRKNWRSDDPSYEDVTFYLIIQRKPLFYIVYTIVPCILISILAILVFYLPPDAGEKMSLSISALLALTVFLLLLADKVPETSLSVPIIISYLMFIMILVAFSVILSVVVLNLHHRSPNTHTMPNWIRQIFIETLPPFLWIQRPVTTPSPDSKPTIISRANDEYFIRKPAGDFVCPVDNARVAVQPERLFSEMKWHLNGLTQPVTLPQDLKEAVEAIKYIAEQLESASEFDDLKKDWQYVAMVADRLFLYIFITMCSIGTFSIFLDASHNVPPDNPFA

Structure (SMILES): C=CC1=C[C@@H]2[C@@H]3O[C@]4(CC[C@H](O4)[C@@H](C)C[C@@H](O)C3=O)C[C@H](O)C3=NCC[C@@]32CC1 [Portimine-A]
- IC50: 11900 nM
